The subject of test [1] is A549. As to the kind of experiment: Cytotoxicity against human A549 cells assessed as decrease in cell viability at 10 to 100 uM after 48 hrs by SRB assay. The conditions noted are these: for EC50: A549, 48 h. It counts as functional, cell-based. (In general: In SRB staining, fixed cells bind dye roughly in proportion to their protein.)
The test system of test [2] is A549. As to the kind of experiment: Cytotoxicity against human A549 cells assessed as decrease in cell viability at 10 to 100 uM after 48 hrs by MTT assay. It counts as functional, cell-based. For orientation: Tetrazolium assays rely on reduction of a dye to a coloured formazan, in cell work by metabolically active cells.
In test [3] the target is Signal transducer and activator of transcription 3 (Homo sapiens, UniProt P40763). As to the kind of experiment: Inhibition of STAT3 (unknown origin) assessed as reduction in STAT3-DNA binding.
Test [4] can be described thus: Growth inhibition of human U266 cells. In kind it is functional, cell-based. The settings on record: U-266.
For test [5], the system named is A549. As to the kind of experiment: Cytotoxicity against human A549 cells assessed as decrease in cell viability at 25 to 100 uM after 48 hrs by SRB assay. In kind it is functional, cell-based.

Structures are written as SMILES. Calls of active or inactive are those of the source. The calls are words filed in the database; no cut-off is given here.

Signal transducer and activator of transcription 3, sequence (P40763 whole entry): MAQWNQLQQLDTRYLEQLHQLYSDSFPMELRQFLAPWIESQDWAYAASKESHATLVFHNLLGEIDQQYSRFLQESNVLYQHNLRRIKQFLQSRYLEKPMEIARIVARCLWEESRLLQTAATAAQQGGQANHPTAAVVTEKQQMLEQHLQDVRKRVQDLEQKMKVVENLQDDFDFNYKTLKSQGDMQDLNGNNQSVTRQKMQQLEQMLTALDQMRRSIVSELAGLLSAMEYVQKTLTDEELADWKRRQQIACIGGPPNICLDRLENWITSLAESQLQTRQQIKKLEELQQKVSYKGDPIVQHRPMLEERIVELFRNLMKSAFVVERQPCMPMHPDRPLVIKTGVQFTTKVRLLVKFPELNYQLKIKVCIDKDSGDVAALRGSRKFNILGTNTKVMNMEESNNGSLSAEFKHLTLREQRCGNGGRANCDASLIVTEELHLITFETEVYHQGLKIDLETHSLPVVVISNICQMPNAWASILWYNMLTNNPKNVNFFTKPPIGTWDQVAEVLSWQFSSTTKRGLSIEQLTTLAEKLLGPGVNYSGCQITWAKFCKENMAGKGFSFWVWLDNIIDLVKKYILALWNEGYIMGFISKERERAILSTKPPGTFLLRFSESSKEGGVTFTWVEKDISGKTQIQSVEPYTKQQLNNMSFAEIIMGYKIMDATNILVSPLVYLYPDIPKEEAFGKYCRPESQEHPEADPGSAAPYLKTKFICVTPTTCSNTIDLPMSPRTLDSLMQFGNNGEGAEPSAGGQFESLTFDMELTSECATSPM

Regarding `CCCCC[C@@H]1OC2=C(C(=O)NC2(COC)OC)[C@H](O)[C@@]1(C)O` (some centres undefined), the result in the test on A549 [1] and with A549 [2] was inactive.
One may read the IC50 as the point on the concentration scale where inhibition reaches its midpoint. Usually EC50 stands for the concentration needed to bring the measured effect to its halfway point. `C=C1C2=C(C(=O)N1OC)[C@H](O)[C@@](C)(O)[C@H](CCCCC)O2`: in test [3], the IC50 amounted to 610 µM. Moreover, the Activity entry in the test with A549 [1] was “Dose-dependent effect”. The EC50 in the test on A549 [1] was found to be 46 µM; in test [4] it was 6.7 µM. Also, the result in the test on A549 [2] and in the test on A549 [5] was Active.
Consider `C=C1C2=C(C(=O)N1OC)[C@H](OC(=O)CCl)[C@@](C)(O)[C@H](CCCCC)O2`, for which, in the test on A549 [1], the Activity result was “Dose-dependent effect” and the EC50 worked out at 33 µM. The outcome with A549 [2] was Active. In the test on A549 [5], the result was Active.
In the case of `CCCCC[C@@H]1OC(/C(C)=N/OC)=C(C(=O)O)[C@H](O)[C@@]1(C)O`, the result with A549 [1] and with A549 [2] was inactive.
Consider `C=C1C2=C(C(=O)N1OC)[C@H](OC(C)=O)[C@@](C)(O)[C@H](CCCCC)O2`, for which, in the test on A549 [1], the Activity result was “Dose-dependent effect” and the EC50 stood at 49 µM. The outcome in the test on A549 [2] was Active. Besides, in the test on A549 [5], the result was Active.
Take `CO[C@@]12[C@H](COC(N)=O)C3=C(C(=O)C(C)=C(N)C3=O)N1C[C@@H]1N[C@@H]12` [MITOMYCIN]: the EC50 with A549 [1] came out at 5.2 µM.
